Reference: US5453417A, “Process for the phosphorylation of insulin and product produced thereby” (The Hospital for Sick Children, priority 1991, dated 1995)

What was measured:
Format in all cases: in vivo, dog
[1] = tested on: diabetic dogs; experiment: continuous 24 hour infusion, increase of infusion rate needed to lower 8 a.m. fasting plasma glucose; settings: two diabetic dogs, phosphorylated insulin = product prepared as Example 6 (FIG. 12)
Procedure: Two diabetic dogs were fed a single daily meal of 1100 kcal at 2:00 p.m. daily and given regular (i.e. fast acting) insulin at meal time.
In addition, dogs were infused continuously, 24 hours per day with either regular or phosphorylated insulin (product prepared as example 6).
During repeated experiments the minimum insulin infusion rate required to produce a mean 8 a.m. fasting plasma glucose of 95 mg % was determined for each insulin.

[2] = tested on: normal, fasted, beagle dogs; experiment: intravenous bolus, rate of decline of plasma glucose in 15 minutes following the injection; settings: i.v. bolus, phosphorylated insulin = product of Example 2
Procedure: Phosphorylated insulin produced by the process described in Example 2 and regular insulin (Iletin II pure Pork) were injected as an intravenous bolus into 4 normal, fasted, beagle dogs. Each insulin was injected at a wide range of dosage with not more than one experiment on each dog on any given day. The plasma glucose of each dog was measured (YSI) at 2 minute intervals for 15 minutes following the injection and the rate of decline of glucose from normal was determined in this period for each individual insulin dose. When the data from FIG. 8 are analysed, it can be shown that the % change in insulin dose required to produce a given increase in glucose drop (glucose disposal) is greater for phosphorylated than for regular (unmodified) insulin. Thus, for example, in Table 4, a 28% increase in dose of regular insulin from that which produced a glucose drop of 3.5 mg %/min., caused the "rate of drop of glucose" to increase from 3.5 to 4.0 mg %/min. A 66 % increase in dose of phosphorylated insulin was required to produce the same effect.

[3] = tested on: diabetic (pancreatectomized) dogs; experiment: continuous insulin infusion at Max Rate and reduced rates, plasma glucose plateau under fasting conditions
Procedure: The initial step in the protocol involved determining the required insulin infusion rate of either regular or phosphorylated insulin that would, under fasting conditions, reduce plasma glucose from normal at 7:30 a.m. to a plateau of 60 mg %, 2-4 hours later. […] The rate that produced this reduction of blood glucose to 60 mg % was termed "Max Rate".
On subsequent days, identical experiments were conducted on all 4 diabetic dogs with the exception that the animals received a reduced rate of insulin infusion equal to either 1) 62% of the "Max Rate" as shown in FIG. 6 or 2) 36% of the "Max Rate" as shown in FIG. 7.
In this test, the dogs infused with regular insulin reached a glucose threshold of 180 mg % (renal threshold at which the kidneys begin to spill glucose into the urine). The phosphorlated infused dogs reached a lower average glucose level of 120-130 mg %.
All protocols described were conducted in triplicate on all dogs.

regular insulin: regular (unmodified) insulin, fast acting; Iletin II pure Pork in Example 32 [reference compound]
increase of insulin infusion rate required to drop the fasting glucose from 95 to 70 mg % [1]: 20% | Required % Increase In Insulin Dose ([2]; change in rate of drop of glucose from 1.0 to 1.5 mg %/min): 49% | Required % Increase In Insulin Dose ([2]; change in rate of drop of glucose from 1.5 to 2.0 mg %/min): 33% | Required % Increase In Insulin Dose ([2]; change in rate of drop of glucose from 2.0 to 2.5 mg %/min): 25% | Required % Increase In Insulin Dose ([2]; change in rate of drop of glucose from 2.5 to 3.0 mg %/min): 20% | Required % Increase In Insulin Dose ([2]; change in rate of drop of glucose from 3.0 to 3.5 mg %/min): 39% | Required % Increase In Insulin Dose ([2]; change in rate of drop of glucose from 3.5 to 4.0 mg %/min): 28% | Required % Increase In Insulin Dose ([2]; change in rate of drop of glucose from 4.0 to 4.5 mg %/min): 34% | plasma glucose plateau ([3]; infusion at Max Rate, fasting, last 2 hours, phosphorylated insulin = product of Example 3, 4 diabetic dogs (FIG. 5)): 60 mg % | average glucose level reached ([3]; infusion rate reduced to 36% of Max Rate, phosphorylated insulin = product of Example 3 (FIG. 7)): 180 mg % | average plasma glucose plateau ([3]; infusion rate reduced to 62% of Max Rate, phosphorylated insulin = product of Example 3 (FIG. 6)): 150 mg %
